{
  "source": "paper PMC5357725",
  "about": "“Global update on the susceptibility of human influenza viruses to neuraminidase inhibitors, 2014–2015” (Antiviral Research, 2016)",
  "key": {"[1]": {"test_system": "A(H1N1)pdm09 neuraminidase (NA)", "format": "biochemical, influenza A(H1N1)pdm09 virus"}, "[2]": {"target": "B/Victoria-lineage neuraminidase (NA)", "format": "biochemical, influenza B/Victoria-lineage virus"}},
  "data": [
    {"compound": "[H]/N=C(\\N)N[C@H]1C=C(C(=O)O)O[C@@H]([C@H](OC)[C@H](O)CO)[C@@H]1NC(C)=O", "note": "[Laninamivir, laninamivir]", "values": [
      {"measurement": "inhibition class (NI, RI, HRI)", "setting": "[1]", "result": "NI (key: normal inhibition (NI) (A viruses <10-fold; reduced inhibition (RI) (A viruses 10- to 100-fold; highly reduced inhibition (HRI) (A viruses >100-fold)"}
    ]},
    {"compound": "CCC(CC)[C@H](NC(C)=O)[C@@H]1[C@H](O)[C@@H](C(=O)O)C[C@H]1N=C(N)N", "note": "[Peramivir, peramivir]", "values": [
      {"measurement": "IC50 values fold higher than the median", "setting": "[2]", "result": "8- to 14 fold"}
    ]}
  ]
}
